ChEMBL document CHEMBL1201862, “PubChem BioAssay data set” (2004)
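Interpolation was linear, between the two tested concentrations surrounding the appropriate level; five concentrations were tested over 48 hours in 96-well plates. The concentration for 50% growth inhibition is given as GI50.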 The source made the active and inactive calls. Cut-off read from the data, not from the text of the source: active = GI50 up to about 1.1 µM and inactive = higher.

What was measured:
Assay in all cases: NCI-60 cell line screen, 48 h
[1] = test system: 786-0
[2] = test system: A549
[3] = test system: ACHN
[4] = test system: CAKI-1
[5] = test system: CCRF-CEM
[6] = test system: COLO 205
[7] = test system: DLD-1
[8] = test system: DMS-114
[9] = test system: DMS-273
[10] = test system: EKVX
[11] = test system: HCC 2998
[12] = test system: HCT-116
[13] = test system: HCT-15
[14] = test system: HL-60
[15] = test system: HOP-18
[16] = test system: HOP-62
[17] = test system: HOP-92
[18] = test system: HT-29
[19] = test system: K562
[20] = test system: KM-20L2
[21] = test system: KM12
[22] = test system: LOX IMVI
[23] = test system: LXFL 529
[24] = test system: M14
[25] = test system: M19-MEL
[26] = test system: MOLT-4
[27] = test system: Malme-3M
[28] = test system: NCI-H226
[29] = test system: NCI-H23
[30] = test system: NCI-H460
[31] = test system: NCI-H522
[32] = test system: OVCAR-3
[33] = test system: OVCAR-4
[34] = test system: OVCAR-5
[35] = test system: OVCAR-8
[36] = test system: RPMI-8226
[37] = test system: RXF 393
[38] = test system: RXF 631
[39] = test system: SF-268
[40] = test system: SF-295
[41] = test system: SF-539
[42] = test system: SK-MEL-28
[43] = test system: SK-MEL-2
[44] = test system: SK-MEL-5
[45] = test system: SK-OV-3
[46] = test system: SN12C
[47] = test system: SNB-19
[48] = test system: SNB-75
[49] = test system: SNB-78
[50] = test system: SR
[51] = test system: SW-620
[52] = test system: TK-10
[53] = test system: U-251
[54] = test system: UACC-257
[55] = test system: UACC-62
[56] = test system: UO-31
[57] = test system: XF498
[58] = test system: A498
[59] = test system: IGROV-1

Question: Which GI50 [1] does the source give for CC1(C)OC(=O)C(c2ccsc2)C(=O)O1 here?
Answer: > 100 µM (inactive)

Question: What about the GI50 [2] of the same compound?
Answer: > 100 µM (inactive)

Question: And the GI50 [3]?
Answer: > 100 µM (inactive)

Question: And the GI50 [4]?
Answer: > 100 µM (inactive)

Question: And the GI50 [5]?
Answer: > 100 µM (inactive)

Question: What about the GI50 [6] of the same compound?
Answer: > 100 µM (inactive)

Question: What about the GI50 [7] of the same compound?
Answer: > 100 µM (inactive)

Question: What about the GI50 [8] of the same compound?
Answer: > 100 µM (inactive)

Question: What about the GI50 [9] of the same compound?
Answer: > 100 µM (inactive)

Question: What about the GI50 [10] of the same compound?
Answer: > 100 µM (inactive)

Question: And the GI50 [11]?
Answer: > 100 µM (inactive)

Question: And the GI50 [12]?
Answer: > 100 µM (inactive)

Question: What about the GI50 [13] of the same compound?
Answer: > 100 µM

Question: And the GI50 [14]?
Answer: > 100 µM (inactive)

Question: And the GI50 [15]?
Answer: > 100 µM (inactive)

Question: What about the GI50 [16] of the same compound?
Answer: > 100 µM (inactive)

Question: And the GI50 [17]?
Answer: > 100 µM (inactive)

Question: What about the GI50 [18] of the same compound?
Answer: > 100 µM (inactive)

Question: What about the GI50 [19] of the same compound?
Answer: > 100 µM (inactive)

Question: What about the GI50 [20] of the same compound?
Answer: > 100 µM (inactive)

Question: And the GI50 [21]?
Answer: > 100 µM (inactive)

Question: And the GI50 [22]?
Answer: > 100 µM (inactive)

Question: What about the GI50 [23] of the same compound?
Answer: > 100 µM (inactive)

Question: What about the GI50 [24] of the same compound?
Answer: > 100 µM (inactive)

Question: And the GI50 [25]?
Answer: > 100 µM (inactive)

Question: And the GI50 [26]?
Answer: > 100 µM (inactive)

Question: And the GI50 [27]?
Answer: > 100 µM (inactive)

Question: What about the GI50 [28] of the same compound?
Answer: > 100 µM (inactive)

Question: What about the GI50 [29] of the same compound?
Answer: > 100 µM (inactive)

Question: What about the GI50 [30] of the same compound?
Answer: > 100 µM (inactive)

Question: And the GI50 [31]?
Answer: > 100 µM (inactive)

Question: What about the GI50 [32] of the same compound?
Answer: > 100 µM (inactive)

Question: And the GI50 [33]?
Answer: > 100 µM (inactive)

Question: And the GI50 [34]?
Answer: > 100 µM (inactive)

Question: What about the GI50 [35] of the same compound?
Answer: > 100 µM (inactive)

Question: What about the GI50 [36] of the same compound?
Answer: > 100 µM (inactive)

Question: What about the GI50 [37] of the same compound?
Answer: > 100 µM (inactive)

Question: And the GI50 [38]?
Answer: > 100 µM (inactive)

Question: And the GI50 [39]?
Answer: > 100 µM (inactive)

Question: And the GI50 [40]?
Answer: > 100 µM (inactive)

Question: And the GI50 [41]?
Answer: > 100 µM (inactive)

Question: What about the GI50 [42] of the same compound?
Answer: > 100 µM (inactive)

Question: What about the GI50 [43] of the same compound?
Answer: > 100 µM (inactive)

Question: And the GI50 [44]?
Answer: > 100 µM (inactive)

Question: What about the GI50 [45] of the same compound?
Answer: > 100 µM (inactive)

Question: And the GI50 [46]?
Answer: > 100 µM (inactive)

Question: What about the GI50 [47] of the same compound?
Answer: > 100 µM (inactive)

Question: What about the GI50 [48] of the same compound?
Answer: > 100 µM (inactive)

Question: And the GI50 [49]?
Answer: > 100 µM (inactive)

Question: And the GI50 [50]?
Answer: > 100 µM (inactive)

Question: What about the GI50 [51] of the same compound?
Answer: > 100 µM (inactive)

Question: And the GI50 [52]?
Answer: > 100 µM (inactive)

Question: What about the GI50 [53] of the same compound?
Answer: > 100 µM (inactive)

Question: And the GI50 [54]?
Answer: > 100 µM (inactive)

Question: What about the GI50 [55] of the same compound?
Answer: > 100 µM (inactive)

Question: What about the GI50 [56] of the same compound?
Answer: > 100 µM (inactive)

Question: And the GI50 [57]?
Answer: > 100 µM (inactive)

Question: How did the GI50 [1] turn out when N#CN1CC[C@@H]2CC3(CCC2C1)OCCO3 (some centres undefined) was run?
Answer: > 100 µM (inactive)

Question: What about the GI50 [58] of the same compound?
Answer: > 100 µM (inactive)

Question: What about the GI50 [2] of the same compound?
Answer: > 100 µM (inactive)

Question: And the GI50 [3]?
Answer: > 100 µM (inactive)

Question: What about the GI50 [4] of the same compound?
Answer: > 100 µM (inactive)

Question: What about the GI50 [5] of the same compound?
Answer: > 100 µM (inactive)

Question: And the GI50 [6]?
Answer: > 100 µM (inactive)

Question: What about the GI50 [7] of the same compound?
Answer: > 100 µM (inactive)

Question: And the GI50 [8]?
Answer: > 100 µM (inactive)

Question: And the GI50 [9]?
Answer: > 100 µM (inactive)

Question: And the GI50 [10]?
Answer: > 100 µM (inactive)

Question: And the GI50 [11]?
Answer: > 100 µM (inactive)

Question: And the GI50 [12]?
Answer: > 100 µM (inactive)

Question: What about the GI50 [13] of the same compound?
Answer: > 100 µM

Question: What about the GI50 [14] of the same compound?
Answer: > 100 µM (inactive)

Question: And the GI50 [15]?
Answer: > 100 µM (inactive)

Question: And the GI50 [16]?
Answer: > 100 µM (inactive)

Question: And the GI50 [17]?
Answer: > 100 µM (inactive)

Question: And the GI50 [18]?
Answer: > 100 µM (inactive)

Question: What about the GI50 [59] of the same compound?
Answer: > 100 µM (inactive)

Question: And the GI50 [19]?
Answer: > 100 µM (inactive)

Question: What about the GI50 [20] of the same compound?
Answer: > 100 µM (inactive)

Question: What about the GI50 [21] of the same compound?
Answer: > 100 µM (inactive)

Question: What about the GI50 [23] of the same compound?
Answer: > 100 µM (inactive)

Question: And the GI50 [24]?
Answer: > 100 µM (inactive)

Question: What about the GI50 [25] of the same compound?
Answer: > 100 µM (inactive)

Question: And the GI50 [26]?
Answer: > 100 µM (inactive)

Question: What about the GI50 [27] of the same compound?
Answer: > 100 µM (inactive)

Question: And the GI50 [28]?
Answer: > 100 µM (inactive)

Question: And the GI50 [29]?
Answer: > 100 µM (inactive)

Question: And the GI50 [30]?
Answer: > 100 µM (inactive)

Question: What about the GI50 [31] of the same compound?
Answer: < 0.01 µM (active)

Question: What about the GI50 [32] of the same compound?
Answer: > 100 µM (inactive)

Question: And the GI50 [33]?
Answer: > 100 µM (inactive)

Question: What about the GI50 [34] of the same compound?
Answer: > 100 µM (inactive)

Question: What about the GI50 [35] of the same compound?
Answer: > 100 µM (inactive)

Question: What about the GI50 [36] of the same compound?
Answer: > 100 µM (inactive)

Question: What about the GI50 [37] of the same compound?
Answer: > 100 µM (inactive)

Question: What about the GI50 [38] of the same compound?
Answer: > 100 µM (inactive)

Question: What about the GI50 [39] of the same compound?
Answer: > 100 µM (inactive)

Question: What about the GI50 [40] of the same compound?
Answer: > 100 µM (inactive)

Question: What about the GI50 [41] of the same compound?
Answer: > 100 µM (inactive)

Question: And the GI50 [43]?
Answer: > 100 µM (inactive)

Question: And the GI50 [44]?
Answer: > 100 µM (inactive)

Question: What about the GI50 [45] of the same compound?
Answer: > 100 µM (inactive)

Question: What about the GI50 [46] of the same compound?
Answer: > 100 µM (inactive)

Question: What about the GI50 [47] of the same compound?
Answer: > 100 µM (inactive)

Question: What about the GI50 [48] of the same compound?
Answer: > 100 µM (inactive)

Question: And the GI50 [49]?
Answer: > 100 µM (inactive)

Question: What about the GI50 [50] of the same compound?
Answer: > 100 µM (inactive)

Question: And the GI50 [51]?
Answer: > 100 µM (inactive)

Question: What about the GI50 [52] of the same compound?
Answer: > 100 µM (inactive)

Question: And the GI50 [53]?
Answer: > 100 µM (inactive)

Question: What about the GI50 [54] of the same compound?
Answer: > 100 µM (inactive)

Question: What about the GI50 [55] of the same compound?
Answer: > 100 µM (inactive)

Question: What about the GI50 [56] of the same compound?
Answer: > 100 µM (inactive)

Question: What about the GI50 [57] of the same compound?
Answer: > 100 µM (inactive)
